From PubChem BioAssay (NCI)
Values joined by “and” are separate entries in the source; they are usually repeats but may differ in a detail not shown here. Equal values may be shown once.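 Cultured in 96-well plates, cells were exposed to test compound for 48 hours across five concentrations. GI50 = concentration required for 50% inhibition of growth. At the TGI there is no net growth.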

Legend:
Test in all cases: NCI anticancer screen, dose series, 48 h
SF-295 CNS = system: SF-295 CNS
UO-31 renal = system: UO-31 renal
HT29 colon = system: HT29 colon
ACHN renal = system: ACHN renal
NCI-H460 lung = system: NCI-H460 lung
MDA-MB-435 = system: MDA-MB-435
UACC-257 melanoma = system: UACC-257 melanoma
HL-60(TB) leukemia = system: HL-60(TB) leukemia
HCT-15 colon = system: HCT-15 colon
CCRF-CEM leukemia = system: CCRF-CEM leukemia

SMILES	GI50 (SF-295 CNS)	TGI (SF-295 CNS)	GI50 (UO-31 renal)	TGI (UO-31 renal)	GI50 (HT29 colon)	TGI (HT29 colon)	GI50 (ACHN renal)	TGI (ACHN renal)	GI50 (NCI-H460 lung)	TGI (NCI-H460 lung) [µM]	GI50 (MDA-MB-435)	TGI (MDA-MB-435)	GI50 (UACC-257 melanoma)	TGI (UACC-257 melanoma)	GI50 (HL-60(TB) leukemia)	TGI (HL-60(TB) leukemia)	GI50 (HCT-15 colon)	TGI (HCT-15 colon) [µM]	GI50 (CCRF-CEM leukemia)	TGI (CCRF-CEM leukemia) [µM]
O=CNc1c(Cl)cc2c(c1Cl)Cc1cc([N+](=O)[O-])ccc1-2	3.05 µM	14.3 µM	1.81 µM	29.3 µM	4.41 µM	> 54.8 µM	7.83 µM	> 100 µM	2.88 µM	39.5	1.46 µM	3.63 µM	64 µM	> 100 µM	3.21 µM	> 100 µM	3.27 µM	> 100	0.445 µM	> 100
COc1c(CCC[P+](c2ccccc2)(c2ccccc2)c2ccccc2)cc2c(c1OC)OCO2	2.62 µM	8.38 µM	11.9 µM	47.2 µM	1.08 µM	18.8 µM	5.34 µM	29.5 µM	1.45 µM	4.56	0.462 µM	5.03 µM	0.312 µM	4.38 µM	0.339 µM	1.48 µM	14.7 µM	71.1	1.7 µM	> 100
CCCCOc1ccc(NC(N)=Nc2ccc(Cl)cc2)cc1	–	6.34 µM	–	9.6 µM	–	11.3 µM	–	12.7 µM	–	8.91	–	23.4 µM	–	5.21 µM	–	22.5 µM	–	23.1	–	> 35.7
C[C@H](Nc1ncnc2nc[nH]c12)c1cc2cccc(Cl)c2c(=O)n1-c1ccccc1	1.54 µM	> 100 µM	1.67 µM	> 75.3 µM	5.92 µM	> 100 µM	5 µM	> 100 µM	12.6 µM	> 100	19.4 µM	> 100 µM	8.57 µM	> 100 µM	3.37 µM	99.5 µM	31.5 µM	> 100	3 µM	> 100
ClCCn1c(CCl)nc2ccc(Cl)cc21	2.21 µM	5.5 µM	1.57 µM	3.11 µM	0.436 µM	1.39 µM	1.35 µM	2.72 µM	0.955 µM	4.59	0.692 µM	2.12 µM	1.62 µM	3.49 µM	1.89 µM	4.11 µM	0.392 µM	2.23	0.28 µM	1.65
COC(=O)[C@]12CC[C@@H](C)[C@H](C)[C@@H]1C1=CC[C@@H]3[C@@]4(C)C[C@@H](OC(C)=O)[C@H](O)[C@@](C)(COC(C)=O)[C@@H]4[C@H](O)C[C@@]3(C)[C@]1(C)CC2	1.82 µM	4.07 µM	2.01 µM	7.2 µM	1.82 µM	3.7 µM	2.83 µM	9.17 µM	2.05 µM	4.02	2.95 µM	10.7 µM	2.06 µM	5.92 µM	2.11 µM	5.42 µM	2.51 µM	9.01	2.54 µM	6.34
COc1cccc(/C=C/C(=O)c2cccc(Nc3nc(Nc4ccccc4)nc(Nc4ccccc4)n3)c2)c1	1.96 µM	–	7.36 µM	57.5 µM	4.36 µM	> 81.7 µM	67.3 µM	> 100 µM	9.01 µM	> 61.8	14.5 µM	> 59.7 µM	> 56 µM	> 100 µM	10.5 µM	43.6 µM	9.59 µM	> 100	5.26 µM	45.5
COC1(C(=O)N[C@@H](C)c2ccc(-n3cc(F)cn3)nc2)CCC(c2nc(C)cc(Nc3cc(C)[nH]n3)n2)CC1 (some centres undefined)	1.17 µM	3.95 µM	0.436 µM	1.99 µM	2.31 µM	22.4 µM	1.01 µM	3.49 µM	5.2 µM	18.5	8.27 µM	21.1 µM	10.9 µM	26.5 µM	19.5 µM	41.8 µM	2.93 µM	13.3	11 µM	> 100
Cc1occc1C(=S)Nc1ccc(Cl)c(COC(C)(C)C)c1	–	27.9 µM	–	26 µM	–	29.6 µM	–	31.1 µM	–	31	–	30.7 µM	–	31.3 µM	–	45 µM	–	34.5	–	62.4
CC/C=C\C=C/C(=O)N/C=C/CC1Cc2cccc(O)c2C(=O)O1 (centres undefined)	33.1 µM	> 100 µM	35.4 µM	> 100 µM	23.5 µM	53.7 µM	22.3 µM	52.1 µM	24.3 µM	62.1	3 µM	10.7 µM	25.2 µM	> 100 µM	23.8 µM	> 100 µM	13.6 µM	42	15 µM	39.9
CN1CCN(CCc2cccc(C(=O)c3cnn(-c4ccc(F)cc4)c3N)c2)CC1	> 25 µM	> 25 µM	> 25 µM	> 25 µM	> 25 µM	> 25 µM	> 25 µM	> 25 µM	> 25 µM	> 25	> 25 µM	> 25 µM	> 25 µM	> 25 µM	> 25 µM	> 25 µM	> 25 µM	> 25	> 25 µM	> 25
COc1ccc(C(=O)/C=C/c2ccc(/C=C/c3cc(OC)c(OC)c(OC)c3)cc2)cc1	9.01 µM	> 100 µM	4.64 µM	> 100 µM	4.17 µM	> 100 µM	11.6 µM	> 100 µM	8.65 µM	> 100	4.28 µM	47.7 µM	9 µM	> 100 µM	4.49 µM	> 100 µM	2.42 µM	> 100	4.15 µM	> 100
CC1SC(c2c(Cl)cccc2Cl)N(NC(=O)c2[nH]c3ccc(F)cc3c2-c2ccccc2)C1=O (centres undefined)	1.9 µM	3.71 µM	2.13 µM	8.61 µM	2.96 µM	10.8 µM	2.82 µM	8.35 µM	2.03 µM	3.9	5.01 µM	> 100 µM	4.69 µM	44 µM	67.5 µM	> 100 µM	3.73 µM	22.2	4.79 µM	42.5
CC1(C)SC2C(NC(=O)C(N)c3ccccc3)C(=O)N2C1C(=O)O (centres undefined)	–	> 100 µM	–	> 100 µM	–	> 100 µM	–	> 100 µM	–	> 100	–	> 100 µM	–	> 100 µM	–	> 100 µM	–	> 100	–	> 100
CCN(Cc1ccc(F)c(F)c1)c1ccc(CO)c(Cl)c1	0.51 µM	12.1 µM	2.7 µM	19.2 µM	4.52 µM	19.1 µM	9.77 µM	22.8 µM	0.253 µM	10.7	17.9 µM	37.6 µM	0.138 µM	0.432 µM	5.42 µM	29.3 µM	6.63 µM	25	15.1 µM	47
CC(C)NC[C@@H](C(=O)N1CCN(c2ncnc3c2[C@H](C)C[C@H]3O)CC1)c1ccc(Cl)cc1	0.68 µM and 0.47 µM	> 75.1 µM	6.57 µM and 16.2 µM	> 87.3 µM	1.58 µM and 3.45 µM	> 100 µM	> 10 µM and 22.8 µM	> 100 µM	1.47 µM and 2.33 µM	> 100	> 10 µM and 20.9 µM	> 100 µM	> 10 µM and 10.8 µM	> 10 µM and 49.8 µM	> 10 µM and 39.4 µM	> 100 µM	> 10 µM and 44.8 µM	> 100	1.57 µM and 1.24 µM	> 100
COc1ccc(N2C(C)=C(C#N)C34C(=O)N(c5ccccc5)C(=O)C3=C(O)C=CC24O)cc1 (centres undefined)	3.49 µM	15.1 µM	13.9 µM	55.8 µM	12.3 µM	28.3 µM	18.2 µM	45.6 µM	14.6 µM	61.4	5.5 µM	28.7 µM	30.1 µM	> 100 µM	15.5 µM	65.9 µM	13.8 µM	33.8	3.09 µM	15.6
CN(CCCN)CCCNc1nc2ccccc2c2[nH]c3ccccc3c12	0.224 µM	0.738 µM	0.337 µM	1.34 µM	0.193 µM	0.951 µM	0.409 µM	4.45 µM	0.304 µM	1.17	0.281 µM	0.816 µM	1.77 µM	3.49 µM	0.138 µM	0.59 µM	0.446 µM	9.68	0.173 µM	1.58
COc1cc(C2c3cc4c(cc3[C@@H](Nc3ccc(C#N)cc3)C3COC(=O)[C@H]23)OCO4)cc(OC)c1O (some centres undefined)	0.336 µM	8.74 µM and 3.65 µM	0.26 µM and 0.968 µM	7.14 µM and 5.42 µM and 2.64 µM	1.61 µM	11.6 µM and 14 µM	0.128 µM	1.24 µM and 2.41 µM	0.0174 µM and 0.0261 µM	–	1.98 µM	50 µM and > 100 µM	–	33.3 µM	–	1.12 µM and 0.702 µM	–	18	0.147 µM	–
COC(=O)/C=C/C=C(c1ccccc1)c1ccccc1	2.76 µM	8.12 µM	3.27 µM	37.8 µM	3.85 µM	> 100 µM	5.56 µM	> 100 µM	3.67 µM	15.2	1.63 µM	4.37 µM	8.82 µM	> 100 µM	3.26 µM	26.1 µM	3.79 µM	42.1	6.48 µM	> 100
O=C(c1ccc(F)cc1)c1cccc(C(=O)c2ccc(F)cc2)n1	–	39.3 µM	–	66.6 µM	–	> 100 µM	–	> 100 µM	–	> 100	–	> 100 µM	–	> 56.2 µM	–	> 100 µM	–	> 100	–	> 100
CC(C)(C)C[C@H]1NC(C(=O)NCC[C@H](O)CO)[C@H](c2cccc(Cl)c2)[C@@]12C(=O)Nc1cc(Cl)c(F)cc12 (some centres undefined)	13.4 µM	28.1 µM	5.13 µM	19.2 µM	17 µM	32.4 µM	3.28 µM	16.3 µM	2.45 µM	14.6	14.1 µM	29.6 µM	1.75 µM	15.9 µM	14.7 µM	40.1 µM	17.8 µM	37.5	17.7 µM	45.9
N#Cc1cnc2cc(OC[C@H](O)CO)c(NC(=O)CC3CSSC3)cc2c1Nc1ccc(OCc2cccc(F)c2)c(Cl)c1	0.83 µM	1.6 µM	2.11 µM	7.75 µM	0.221 µM	0.836 µM	1.73 µM	5.42 µM	0.126 µM	0.298	0.272 µM	0.878 µM	1.01 µM	1.96 µM	0.806 µM	1.93 µM	3.96 µM	13.2	0.0923 µM	0.251
O=C(CC(=O)CC(O)(C(F)(F)F)C(F)(F)F)CC(O)(C(F)(F)F)C(F)(F)F	–	> 10 µM	–	> 10 µM	–	> 10 µM	–	> 10 µM	–	> 10	–	> 10 µM	–	> 10 µM	–	> 10 µM	–	> 10	–	> 10
COC(=O)[C@H](Cc1cn(C)cn1)NC(=O)[C@H](Cc1c[nH]c2ccccc12)NC(=O)Nc1cc(C(F)(F)F)cc(C(F)(F)F)c1	> 10 µM	> 10 µM	> 10 µM	> 10 µM	> 10 µM	> 10 µM	> 10 µM	> 10 µM	> 10 µM	> 10	> 10 µM	> 10 µM	> 10 µM	> 10 µM	> 10 µM	> 10 µM	> 10 µM	> 10	> 10 µM	> 10
Cc1c(C(=O)/C=C/c2csc3ccccc23)[n+](=O)c2ccccc2n1[O-]	1.94 µM	4.83 µM	1.24 µM	2.56 µM	2.2 µM	4.13 µM	1.48 µM	2.8 µM	1.41 µM	2.71	1.73 µM	3.26 µM	1.81 µM	3.73 µM	1.78 µM	5.19 µM	1.83 µM	4.4	2.42 µM	7.56
